Read-outs that look alike come from different tables or passages of the source.
Assays:
[1] = test system: ACR-2R (ACR-2-containing acetylcholine receptor: UNC-38, UNC-63, ACR-12, ACR-2, ACR-3); conditions: agonist; 1 mM external CaCl2; 500 µM and 1 mM points excluded from fit (open-channel block)
[2] = test system: ACR-2R (ACR-2-containing acetylcholine receptor: UNC-38, UNC-63, ACR-12, ACR-2, ACR-3); conditions: agonist; 1 mM external CaCl2; 500 µM and 1 mM points excluded from fit (open-channel block); n2420 gain-of-function subunit ACR-2(V13′M)

## CC(=O)OCC[N+](C)(C)C [acetylcholine]
[1]
  EC50: 14.1 ± 1.2 µM
[2]
  EC50: 17.8 ± 1.4 µM

From article PMC2787625, “A Neuronal Acetylcholine Receptor Regulates the Balance of Muscle Excitation and Inhibition in Caenorhabditis elegans” (PLoS Biology, 2009)
